The term IC50 denotes the concentration at which inhibition is half-maximal.

“Also recorded” adds a separate entry of the source. Read-outs that look alike come from different tables or passages of the source.

The test system of experiment [1] is HEY A8 cells. The experiment can be described thus: Superoxide production (HKSOX-2m fluorescence). It counts as cell-based, human. Conditions: 5 μM, within 30 min. As to the method: The ability of compound sff-2-112 (“Example 1”) or sff-2-132 (“Example 4”) to induce ROS production was also evaluated on HEY A8 cells (FIG. 9). The ROS production was monitored by superoxide fluorescent probe HKSOX-2m. The increase in fluorescence intensity indicated superoxide production. (n=50-100 cells).
A suspension of HEY A8 cells at the concentration of 5×10^4 cells/mL in DMEM medium were seeded into 30-mm cell culture dishes with glass bottom (MatTek). Cells were incubated at 37° C. in a humidified atmosphere containing 5% CO2 for 24 h. Medium was aspirated and cells was washed with PBS buffer twice. Then 1 mL HBSS buffer containing 4 μM HKSOX-2m was added. Cells were incubated at 37° C. for 30 min before the buffer was aspirated and washed twice with HBSS buffer. Cells were imaged in 0.8 mL HBSS buffer. Fluorescence was monitored by confocal microscope (ZEISS LSM 710; Red channel: λex=543 nm). At t=180 s, compound in 0.2 mL HBSS buffer was added to give the final concentration of 5 μM. Quantitative data were obtained using the ZEN and GraphPad Prism software.

In experiment [2] the test system is HEY A8 CSCs. The experiment can be described thus: Immunoblotting of apoptosis associated proteins PARP, Caspase 3, Caspase 9. The format is cell-based, human. Conditions: 48 h; CSCs at 10-fold lower concentration than cancer cells. As to the method: For immunostaining experiment, cells were treated with compound sff-2-112 (“Example 1”) or compound sff-2-132 (“Example 4”) at different concentration for 48 h, then washed twice with PBS buffer and lysed with 2×SDS buffer with 0.1% Benzonase. Protein extracts were quantified by Pierce BCA Protein Assay Kit with a Nanodrop 2000 (Thermo Fisher Scientific) according to the manufacture's instruction. Protein lysates (˜50 μg/lane) were resolved by SDS-PAGE and transferred onto PVDF membranes. Membranes were incubated with membrane blocking solution (Thermo Fisher Scientific) for 1 h. The blots were then probed with the relevant primary antibodies in blocking solution at 4° C. overnight with gentle agitation. Membranes were washed with 0.1% Tween 20/TBS for 5 min three times and were incubated with Horseradish Peroxidase (HRP) conjugated secondary antibodies for 1 h at room temperature. Antigens were detected by SuperSignal West Pico PLUS Chemiluminescent Substrate (Thermo Fisher Scientific). Imaging was performed using a ChemiDoc™ XRS+ System (Bio-Rad).

The subject of experiment [3] is HEY A8 CSCs. The experiment can be described thus: In vivo tumor seeding ability of pretreated HEY A8 CSCs. To be noted: CSCs pretreated 2 days in vitro, 10^6 cells injected subcutaneously in mice, 25 days. As to the method:
In vivo tumor seeding ability of cells after treatment with compound sff-2-112 (“Example 1”) or sff-2-132 (“Example 4”) was evaluated. Taxol was used as a negative control. For this experiment, HEY A8 CSCs were pretreated with sff-2-112 (“Example 1”), sff-2-132 (“Example 4”) or Taxol for 2 days in suspension medium, respectively. Then cells were allowed to proliferate in full medium in the absence of drugs for 10 days. After that, 10^6 cells were injected into mice subcutaneously. Tumor size was measured for 25 days after injection.

The test system of experiment [4] is HEY A8 cells. The experiment in a line: Mitochondrial membrane potential (JC-1 red to green ratio). The format is cell-based, human. Conditions: for mitochondrial membrane potential, kinetic study: 10 μM added at 180 s, image interval 30 s; for mitochondrial membrane potential depolarization: treated 10 min, FIG. 8a. Here is the method:
A suspension of HEY A8 cells at the concentration of 5×10^4 cells/mL in DMEM medium were seeded into 30-mm cell culture dishes with glass bottom (MatTek). Cells were incubated at 37° C. in a humidified atmosphere containing 5% CO2 for 24 h. Medium was aspirated and cells was washed with PBS buffer twice. Then 1 mL HBSS buffer containing 2.5 μM JC-1 was added. Cells were incubated at 37° C. for 20 min before the buffer was aspirated. Cells were washed with PBS buffer twice and treated with cation transporters for 10 min. Fluorescence was monitored by confocal imaging with ZEISS LSM 780 (Red channel: λex=543 nm, Green channel: λex=488 nm). Quantitative data were obtained using the ZEN and Graph Pad Prism software packages.
The Kinetic study of this compound on the MMP in HEY A8 cells was also conducted. Compound sff-2-112 (“Example 1”) or sff-2-132 (“Example 4”) at the final concentration of 10 μM was added at 180 s. The interval for each image was 30 s. The decrease in red to green fluorescence ratio of JC-1 indicates MMP depolarization.

Experiment [5] deals with SKOV3 CSCs (SKOV3 SP). The experiment in a line: Cell viability (CellTiter-Glo) on SKOV3 spheres (CSCs). Conditions: read-out: IC50 Cancer Stem Cell SKOV3 SP. The format is cell-based, human. Here is the method:
Cell Cultures Human ovarian carcinoma cell lines HEY A8 and SKOV3 were gifts from Professor Alice Wong's group (The University of Hong Kong). Cells were grown in Dulbecco's Modified Eagle (DMEM) medium supplemented with 10% FBS and 1% penicillin/streptomycin at 37° C. in a humidified atmosphere containing […] CO2. Isolation and culture of spheres were performed in serum-free stem-cell-selective condition as described in literature Ip etl. Oncogene 2014, 5, 9133-9149. Briefly, 1-2 weeks after plating, non-adherent spherical clusters of cells could be observed and were separated from single cells by low speed centrifugation. After 8th to 10th passages, the non-adherent spherical clusters of cells appeared as distinct spheres. Using this selection condition, HEY A8 spheres (HEY A8 SP) or SKOV3 spheres (SKOV3 SP) could be enzymatically dissociated and reformed into spheres within 3 days under stem-cell-selective condition. To allow differentiation, dissociated sphere cells were plated on tissue culture plates in medium (MCDB 105:M199=1:1) supplemented with 10% FBS and 1% PS.
HEY A8 SP cells or SKOV3 SP cells (5×10^4) were plated in triplicate in 10 mL serum-free MCDB105 medium in 100-mm Petri dish for 7 days to form spheres. […] After that, the reagent was transferred into 96-well plates and cell viability was measured using a microplate reader (SpectraMax 340PC 384, Molecular Devices).
(In ATP-based viability assays light output follows the ATP content of the culture.)

The test system of experiment [6] is HEK293. The experiment can be described thus: Toxicity against normal cell line HEK293. The format is cell-based. The text has this: Fourteen compounds including aminoxy acid monomers and dipeptides have been identified to show toxicity against HEY A8 CSCs. The half maximal inhibitory concentration (IC50) values of compounds sff-2-112, sff-2-124, sff-2-132 and sff-2-100 towards adherent cancer HEY A8, SKOV3 cells and CSCs were further determined. […] Especially compound sff-2-132, its selectivity to CSCs is up to 60-fold higher than that to cancer cells. Their toxicity against other normal cell lines NIH3T3, HEK293 and MDCK were also tested and the IC50 values were summarized in Table 1.

As for `O=C(NO[C@H](COCc1ccccc1)C(=O)Nc1ccccc1)c1cc(C(F)(F)F)cc(C(F)(F)F)c1` [sff-2-112], the “increasement of superoxide production” value in experiment [1] is given as “about 2 fold”. Besides, the “activation of PARP1, Caspase 3 and Caspase 9” value in experiment [2] is “activation of protein PARP1, Caspase 3 and Caspase 9 was also observed in CSCs”. Further, the “tumor-seeding ability / tumor size of pretreated cells” value in experiment [3] is given as “significant decrease in tumor-seeding ability; also recorded: significantly decreased tumor size”. In experiment [4], the “mitochondrial membrane potential, kinetic study” value is reported as “MMP depolarized immediately” and the “mitochondrial membrane potential depolarization” value is on record as “effectively depolarize mitochondrial membrane potential (MMP) of HEY A8 cells in a dose dependent manner”. Further, in experiment [5] (48 h incubation), the half-inhibitory concentration (IC50) came to 0.9 ± 0.9 µM. This compound gave an IC50 in experiment [6] of 51 ± 1 µM.
In the case of `CC(C)(C)OC(=O)[C@@H](COCc1ccccc1)ONC(=O)c1cc(C(F)(F)F)cc(C(F)(F)F)c1` [sff-2-132], the “increasement of superoxide production” value in experiment [1] is “about 2 fold”. In experiment [2], the “activation of PARP1, Caspase 3 and Caspase 9” value was “activation of protein PARP1, Caspase 3 and Caspase 9 was also observed in CSCs”. Further, the “tumor-seeding ability / tumor size of pretreated cells” value in experiment [3] is “significant decrease in tumor-seeding ability; also recorded: significantly decreased tumor size”. Further, in experiment [4], the “mitochondrial membrane potential, kinetic study” value was “MMP depolarized immediately” and the “mitochondrial membrane potential depolarization” value is “effectively depolarize mitochondrial membrane potential (MMP) of HEY A8 cells in a dose dependent manner”. For the same compound, the half-maximal inhibitory concentration (IC50) in experiment [5] (Homo sapiens, SK-OV-3, 48 h incubation) came out at 1 ± 0.9 µM. The compound also had an IC50 in experiment [6] (Homo sapiens, HEK293) of 70.3 ± 1.7 µM.
